Source: patent US5525735A, “Methods for synthesizing diverse collections of pyrrolidine compounds” (AFFYMAX Technologies NV, priority 1994, dated 1996)
Where two headings read alike, the source gives them in different places.

Legend:
[1] = molecular target: T1, rabbit kidney ACE (Oryctolagus cuniculus, UniProt P12822); assay: Determination of inhibition constants (Ki), fluorometric ACE assay, hydrolysis of Hippuryl-His-Leu; assay type: biochemical
T1 construct: purchased Sigma; host or cells: rabbit kidney
T1 sequence (P12822 34-1310): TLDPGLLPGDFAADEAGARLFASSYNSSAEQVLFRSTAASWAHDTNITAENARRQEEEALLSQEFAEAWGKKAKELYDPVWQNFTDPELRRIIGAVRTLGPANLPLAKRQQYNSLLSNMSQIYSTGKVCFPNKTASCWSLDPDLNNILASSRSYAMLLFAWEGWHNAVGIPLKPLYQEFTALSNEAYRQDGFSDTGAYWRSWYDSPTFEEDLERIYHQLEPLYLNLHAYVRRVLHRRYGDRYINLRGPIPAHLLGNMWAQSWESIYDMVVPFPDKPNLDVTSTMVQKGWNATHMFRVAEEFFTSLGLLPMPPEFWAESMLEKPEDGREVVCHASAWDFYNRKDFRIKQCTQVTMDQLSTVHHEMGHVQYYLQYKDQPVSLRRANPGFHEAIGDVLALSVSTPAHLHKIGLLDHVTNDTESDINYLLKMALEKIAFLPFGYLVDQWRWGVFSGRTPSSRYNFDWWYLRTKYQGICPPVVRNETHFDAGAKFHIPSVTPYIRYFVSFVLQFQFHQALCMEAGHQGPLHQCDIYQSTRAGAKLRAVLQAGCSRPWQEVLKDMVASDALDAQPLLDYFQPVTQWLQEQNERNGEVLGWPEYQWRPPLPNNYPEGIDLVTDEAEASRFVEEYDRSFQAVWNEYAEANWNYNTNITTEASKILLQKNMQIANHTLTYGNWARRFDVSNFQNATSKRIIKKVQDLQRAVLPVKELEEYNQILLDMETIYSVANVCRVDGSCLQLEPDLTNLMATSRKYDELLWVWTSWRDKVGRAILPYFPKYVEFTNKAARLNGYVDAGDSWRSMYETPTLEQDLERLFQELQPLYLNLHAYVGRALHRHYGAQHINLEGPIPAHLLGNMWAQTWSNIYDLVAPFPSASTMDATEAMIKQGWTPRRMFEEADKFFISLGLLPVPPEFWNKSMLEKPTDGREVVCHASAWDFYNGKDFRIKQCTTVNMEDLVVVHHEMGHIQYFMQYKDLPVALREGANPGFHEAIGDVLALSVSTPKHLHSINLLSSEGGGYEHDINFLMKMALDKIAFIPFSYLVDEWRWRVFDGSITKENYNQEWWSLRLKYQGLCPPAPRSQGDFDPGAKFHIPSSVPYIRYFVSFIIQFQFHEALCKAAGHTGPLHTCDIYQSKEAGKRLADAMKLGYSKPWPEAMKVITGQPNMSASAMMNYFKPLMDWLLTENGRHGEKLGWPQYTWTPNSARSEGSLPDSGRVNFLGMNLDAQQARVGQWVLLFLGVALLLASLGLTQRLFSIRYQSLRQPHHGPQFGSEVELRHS
Description: The product, His-Leu, was then derivatized to a fluorophore by the addition of 2% o-phthalaldehyde (0.1 mL) in MeOH, followed by incubation at 25° C. for 8 minutes, addition of 2N HCl (0.2 mL), and then measuring fluorescence after 15 minutes incubation at 25° C.
(§1) The fluorescence intensity (arbitrary units) was determined using an SLM Aminco model 8000 spectrofluorometer equipped with a temperature regulated cell using an excitation wavelength at 360 nm and with an emission wavelength at 490 nm. The amount of His-Leu formed with time was determined from standard curves of fluorescence versus concentration of His-Leu (Sigma).
Inhibition constants were determined from double reciprocal plots of rate of product formation versus substrate concentration in the absence and presence of inhibitor.

[2] = molecular target: T1, rabbit kidney ACE; assay: in vitro inhibition of ACE by soluble compound pools (deconvolution analysis of library, fluorometric assay, IC50); assay type: biochemical; details: identified by iterative assay and sub-library resynthesis
Source text: Functionalized prolines and proline analogs are frequently found as the C-terminal residue in numerous ACE inhibitors. Using the methods described herein, a library of prolines and proline analogs has been prepared. The library was formed by the split synthesis method^35, using four amino acids, four aldehydes, five olefins, and three mercaptoacyl chlorides as shown in FIG. 3 below. […] After cleavage from the resin (10% TFA in dichloromethane) and deacetylation of the protected mercaptoacyl proline products with ethylenediamine, the library was screened for in vitro inhibition of ACE^33 as soluble compound pools through four iterations of assay and sub-library resynthesis. At each step of this deconvolution analysis, the building block affording the most inhibitory pool was selected for the subsequent sub-library resynthesis.
To each product was added 200 μ.LAMBDA. of 1.0M ethylenediamine in methanol under nitrogen. […] The ACE inhibitory activity of each pool was immediately determined. […]
as §1, with “(Sigma). […]” for “(Sigma).”

Row | Structure (SMILES) | Ki ([1]; after deacetylation, isomer assigned 2-R, read-out: Ki (individual diastereomers after deacetylation, earlier eluting isomer)) [nM] | Ki ([1]; 50 pM enzyme, 20 minute preincubation, assay times 10 or 20 minutes, pH 8.3, read-out: Ki (dissociation constant of the enzyme-inhibitor complex)) [nM] | Ki ([1]; after deacetylation, read-out: Ki (individual diastereomers after deacetylation, later eluting isomer)) [nM] | type of inhibition ([1]; double reciprocal plots, 50 pM enzyme, 20 minute preincubation) | fold more active than captopril ([1]; relative to captopril in the same assay) | ACE inhibitory activity in words (library deconvolution) [2]
1 | COC(=O)[C@@H]1C[C@H](C(=O)O)N(C(=O)[C@H](C)CS)[C@@H]1c1ccccc1 (single isomer, unassigned) [earlier eluting isomer] | > 1000 |  |  |  |  | 
2 | COC(=O)[C@H]1C[C@@H](C(=O)O)N(C(=O)[C@H](C)CS)[C@H]1c1ccccc1 [Compound 9, 1-(3'-thio-2'(S)-methyl-1'-oxopropyl)-5-phenyl-2,4-pyrrolidinedicarboxylicacid 4-methyl ester] |  | 0.16 ± 0.05 | ~0.16 | competitive type inhibition | approximately 3 fold | potent ACE inhibitor
